Experimental data: PubChem BioAssay (NCI)
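All cell lines were grown in 96-well plates and treated with compound for 48 hours. GI50 is the concentration that inhibits growth by half. TGI denotes the concentration required for complete inhibition of growth.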

Assays:
Assay in all cases: DTP human tumour cell line panel, 48 h
BT-549 breast = test system: BT-549 breast
T-47D breast = test system: T-47D breast
UACC-257 melanoma = test system: UACC-257 melanoma
M14 melanoma = test system: M14 melanoma
SK-MEL-28 melanoma = test system: SK-MEL-28 melanoma
MOLT-4 leukemia = test system: MOLT-4 leukemia
MDA-MB-231 breast = test system: MDA-MB-231 breast
HOP-62 NSCLC = test system: HOP-62 NSCLC
UACC-62 melanoma = test system: UACC-62 melanoma
OVCAR-5 ovarian = test system: OVCAR-5 ovarian
SR leukemia = test system: SR leukemia
HCT-15 colon = test system: HCT-15 colon
MALME-3M melanoma = test system: MALME-3M melanoma
SNB-19 CNS = test system: SNB-19 CNS
CAKI-1 renal = test system: CAKI-1 renal
OVCAR-4 ovarian = test system: OVCAR-4 ovarian
SF-295 CNS = test system: SF-295 CNS
HT29 colon = test system: HT29 colon
RXF 393 renal = test system: RXF 393 renal
LOX IMVI melanoma = test system: LOX IMVI melanoma
EKVX NSCLC = test system: EKVX NSCLC
MCF7 breast = test system: MCF7 breast
RPMI-8226 leukemia = test system: RPMI-8226 leukemia
NCI/ADR-RES ovarian = test system: NCI/ADR-RES ovarian
CCRF-CEM leukemia = test system: CCRF-CEM leukemia
U251 CNS = test system: U251 CNS
KM12 colon = test system: KM12 colon
A498 renal = test system: A498 renal
SK-OV-3 ovarian = test system: SK-OV-3 ovarian
TK-10 renal = test system: TK-10 renal
PC-3 prostate = test system: PC-3 prostate
SN12C renal = test system: SN12C renal
OVCAR-8 ovarian = test system: OVCAR-8 ovarian
HL-60(TB) leukemia = test system: HL-60(TB) leukemia
COLO 205 colon = test system: COLO 205 colon
MDA-MB-435 = test system: MDA-MB-435
SK-MEL-2 melanoma = test system: SK-MEL-2 melanoma
K-562 leukemia = test system: K-562 leukemia
HOP-92 NSCLC = test system: HOP-92 NSCLC
DU-145 prostate = test system: DU-145 prostate
NCI-H23 lung = test system: NCI-H23 lung
A549 NSCLC = test system: A549 NSCLC
SNB-75 CNS = test system: SNB-75 CNS
HCT-116 colon = test system: HCT-116 colon
OVCAR-3 ovarian = test system: OVCAR-3 ovarian
NCI-H226 lung = test system: NCI-H226 lung
ACHN renal = test system: ACHN renal
SW-620 colon = test system: SW-620 colon
SF-268 CNS = test system: SF-268 CNS
UO-31 renal = test system: UO-31 renal
IGROV1 ovarian = test system: IGROV1 ovarian
SF-539 CNS = test system: SF-539 CNS
786-0 renal = test system: 786-0 renal
NCI-H460 lung = test system: NCI-H460 lung
HCC-2998 colon = test system: HCC-2998 colon
HS 578T breast = test system: HS 578T breast
NCI-H522 lung = test system: NCI-H522 lung
SK-MEL-5 melanoma = test system: SK-MEL-5 melanoma

CN(C)CC1C(=O)O[C@H]2[C@H]1CC/C(COC(=O)c1cc3ccccc3[nH]1)=C\CC[C@@]1(C)O[C@@H]21 (stereo partly specified)
GI50 (BT-549 breast): 1660 nM
TGI (BT-549 breast): 4480 nM
GI50 (T-47D breast): 2190 nM
TGI (T-47D breast): 5540 nM
GI50 (UACC-257 melanoma): 1470 nM
TGI (UACC-257 melanoma): 3240 nM
GI50 (M14 melanoma): 1760 nM
TGI (M14 melanoma): 4290 nM
GI50 (SK-MEL-28 melanoma): 2170 nM
TGI (SK-MEL-28 melanoma): 5240 nM
GI50 (MOLT-4 leukemia): 1980 nM
TGI (MOLT-4 leukemia): 7320 nM
GI50 (MDA-MB-231 breast): 2000 nM
TGI (MDA-MB-231 breast): 4630 nM
GI50 (HOP-62 NSCLC): 2720 nM
TGI (HOP-62 NSCLC): 7980 nM
GI50 (UACC-62 melanoma): 1720 nM
TGI (UACC-62 melanoma): 3890 nM
GI50 (OVCAR-5 ovarian): 2370 nM
TGI (OVCAR-5 ovarian): 6150 nM
GI50 (SR leukemia): 1550 nM
TGI (SR leukemia): 9890 nM
GI50 (HCT-15 colon): 629 nM
TGI (HCT-15 colon): 2280 nM
GI50 (MALME-3M melanoma): 1800 nM
TGI (MALME-3M melanoma): 4560 nM
GI50 (SNB-19 CNS): 11400 nM
TGI (SNB-19 CNS): 25900 nM
GI50 (CAKI-1 renal): 1310 nM
TGI (CAKI-1 renal): 2850 nM
GI50 (OVCAR-4 ovarian): 1570 nM
TGI (OVCAR-4 ovarian): 3680 nM
GI50 (SF-295 CNS): 4870 nM
TGI (SF-295 CNS): 18500 nM
GI50 (HT29 colon): 671 nM
TGI (HT29 colon): 2570 nM
GI50 (RXF 393 renal): 1400 nM
TGI (RXF 393 renal): 2890 nM
GI50 (LOX IMVI melanoma): 500 nM
TGI (LOX IMVI melanoma): 992 nM
GI50 (EKVX NSCLC): 3160 nM
TGI (EKVX NSCLC): 12500 nM
GI50 (MCF7 breast): 1010 nM
TGI (MCF7 breast): 4550 nM
GI50 (RPMI-8226 leukemia): 354 nM
TGI (RPMI-8226 leukemia): 2110 nM
GI50 (NCI/ADR-RES ovarian): 1760 nM
TGI (NCI/ADR-RES ovarian): 4600 nM
GI50 (CCRF-CEM leukemia): 432 nM
TGI (CCRF-CEM leukemia): 15900 nM
GI50 (U251 CNS): 2300 nM
TGI (U251 CNS): 5710 nM
GI50 (KM12 colon): 3230 nM
TGI (KM12 colon): 10800 nM
GI50 (A498 renal): 11100 nM
TGI (A498 renal): 23900 nM
GI50 (SK-OV-3 ovarian): 19900 nM
TGI (SK-OV-3 ovarian): 39300 nM
GI50 (TK-10 renal): 2040 nM
TGI (TK-10 renal): 3980 nM
GI50 (PC-3 prostate): 2140 nM
TGI (PC-3 prostate): 5860 nM
GI50 (SN12C renal): 2200 nM
TGI (SN12C renal): 6080 nM
GI50 (OVCAR-8 ovarian): 2130 nM
TGI (OVCAR-8 ovarian): 7480 nM
GI50 (HL-60(TB) leukemia): 663 nM
TGI (HL-60(TB) leukemia): 3530 nM
GI50 (COLO 205 colon): 2160 nM
TGI (COLO 205 colon): 5500 nM
GI50 (MDA-MB-435): 1490 nM
TGI (MDA-MB-435): 3200 nM
GI50 (SK-MEL-2 melanoma): 1980 nM
TGI (SK-MEL-2 melanoma): 5510 nM
GI50 (K-562 leukemia): 1140 nM
TGI (K-562 leukemia): 6110 nM
GI50 (HOP-92 NSCLC): 1530 nM
TGI (HOP-92 NSCLC): 3620 nM
GI50 (DU-145 prostate): 2010 nM
TGI (DU-145 prostate): 6170 nM
GI50 (NCI-H23 lung): 2390 nM
TGI (NCI-H23 lung): 8300 nM
GI50 (A549 NSCLC): 4620 nM
TGI (A549 NSCLC): 14300 nM
GI50 (SNB-75 CNS): 2180 nM
TGI (SNB-75 CNS): 10400 nM
GI50 (HCT-116 colon): 577 nM
TGI (HCT-116 colon): 1570 nM
GI50 (OVCAR-3 ovarian): 672 nM
TGI (OVCAR-3 ovarian): 1760 nM
GI50 (NCI-H226 lung): 3230 nM
TGI (NCI-H226 lung): 9350 nM
GI50 (ACHN renal): 923 nM
TGI (ACHN renal): 2480 nM
GI50 (SW-620 colon): 1750 nM
TGI (SW-620 colon): 4410 nM
GI50 (SF-268 CNS): 1650 nM
TGI (SF-268 CNS): 3430 nM
GI50 (UO-31 renal): 872 nM
TGI (UO-31 renal): 2360 nM
GI50 (IGROV1 ovarian): 1970 nM
TGI (IGROV1 ovarian): 4620 nM
GI50 (SF-539 CNS): 2200 nM
TGI (SF-539 CNS): 5860 nM
GI50 (786-0 renal): 1690 nM
TGI (786-0 renal): 4880 nM
GI50 (NCI-H460 lung): 7350 nM
TGI (NCI-H460 lung): 25600 nM
GI50 (HCC-2998 colon): 1780 nM
TGI (HCC-2998 colon): 3580 nM
GI50 (HS 578T breast): 2930 nM
TGI (HS 578T breast): 13600 nM
GI50 (NCI-H522 lung): 1320 nM
TGI (NCI-H522 lung): 3050 nM
GI50 (SK-MEL-5 melanoma): 1840 nM
TGI (SK-MEL-5 melanoma): 3570 nM
